Tests used:
[1] = Surface activity on pulsating bubble surfactometer (minimum surface tension); format: physicochemical; conditions: 37° C., 20 cycles/min, 50% area compression, lipid […] except SLM (1.0 mg/ml)
Procedure: Surfactant compositions were formulated using various molar or wt ratios of lipid analogs or naturally occurring lipids, with the addition of native lung surface proteins or synthetic peptides, and optionally a saturated free fatty acid in the indicated wt percentage based on the total weight of the intermediate lipid formulation. Surfactant compositions were dispersed in 0.15M NaCl+2 mM CaCl2 and placed in a sample chamber mounted on the pulsator unit of a bubble surfactometer. All surfactants were studied at a lipid concentration of 2.5 mg/ml, and in addition a mixture of synthetic ester-linked phospholipids (SLM) plus Super Mini-B was studied at a lipid concentration of 1 mg/ml.
A tiny air bubble was formed and pulsated between maximum and minimum radii of 0.55 and 0.4 mm, respectively, while the pressure drop across the air-water interface of the bubble was measured with a precision transducer. Surface tension was calculated from the measured pressure drop at minimum radius (0.4 mm) from the Laplace equation (Enhorning, “Pulsating Bubble Technique for Evaluation of Pulmonary Surfactant,” J Appl Physiol 43:198-203 (1977); Hall et al., “Approximations in the Measurement of Surface Tension with the Oscillating Bubble Surfactometer,” J Appl Physiol 75:468-477 (1993), each of which is hereby incorporated by reference in its entirety).
The high surface activity of synthetic lung surfactants containing DEPN-8 or 9:1 DEPN-8:PG-A or 9:1 DEPN-8:PG-B plus 1.5% by weight of Mini-B, FK20, or F4K is shown in Table 1. Activity is also shown for mixtures containing two glycerophospholipids found in endogenous lung surfactant, 8:2 (molar ratio) dipalmitoyl phosphatidylcholine (DPPC) and palmitoyl-oleoyl phosphatidylglycerol (POPG), with or without added synthetic peptides. Also studied is a synthetic lipid mixture containing 16:10:6:1:2 (by weight) DPPC, palmitoyl-oleoyl-phosphatidylcholine (POPC), POPG, palmitoyl-oleoyl-phosphatidylethanolamine (POPE), and cholesterol combined with Super Mini B (SEQ ID NO: 13). The surface activity of DEPN-8+1.5% bovine SP-B/C (mixture of bovine surfactant proteins B/C purified on a column from extracted calf lung surfactant) is additionally shown as a positive control. As described in the preceding paragraph, the surface activity measurements in Table 1 were obtained with a pulsating bubble surfactometer in vitro. Measurements of surface activity on this instrument reflect the combined effects of adsorption and dynamic film compression at a cycling rate (20 cycles/min), temperature (37° C.), and area compression (50% compression from maximum to minimum area) relevant for the mammalian lungs in vivo (Notter, Lung Surfactants: Basic Science and Clinical Applications, Marcel Dekker, Inc, New York (2000); Enhorning, “Pulsating Bubble Technique for Evaluation of Pulmonary Surfactant,” J Appl Physiol 43:198-203 (1977); Notter et al., “Pulmonary Surfactant: Physical Chemistry, Physiology and Replacement,” Rev Chem Eng 13:1-118 (1997), each of which is hereby incorporated by reference in its entirety). Prior publications have shown that assessments of surface activity on the bubble apparatus correlate well with the physiological activity of exogenous surfactants in animal lungs (see Notter, Lung Surfactants: Basic Science and Clinical Applications, Marcel Dekker, Inc, New York (2000); Notter et al., “Pulmonary Surfactant: Physical Chemistry, Physiology and Replacement,” Rev Chem Eng 13:1-118 (1997); Holm et al., “Effects of Hemoglobin and Cell Membrane Lipids on Pulmonary Surfactant Activity,” J Appl Physiol 63:1434-1442 (1987), each of which is hereby incorporated by reference in its entirety). […] The activity of these surfactant formulations of the present invention also approached or exceeded the positive control DEPN-8+1.5% bovine SP-B/C. […]

[2] = target: dipalmitoyl phosphatidylcholine (DPPC); assay: Plasmon resonance (Biacore 3000) binding of lipid liposomes to peptide film; conditions: DPPC liposomes over peptide film on CM5 chip, 37° C.; read-out: dissociation constant KD (koff/kon)
Procedure: (§1) Super Mini-B peptide was also characterized in terms of its binding (association) affinity for lipids by plasmon resonance using a Biacore 3000 system (Biacore, Uppsala, Sweden). Peptide self-films were chemically-linked using a CM5 sensor chip (BR-1000-14, research grade), and lipid liposomes in running buffer were flowed over the chip to determine the degree of specific lipid association with the peptide film at 37° C. The off and on rates and dissociation constant KD (KD=koff/kon) were calculated by BIAevaluation Software Version 4.1.

DEPN-8 = assay: as above; conditions: DEPN-8 liposomes over peptide film on CM5 chip, 37° C.; read-out: dissociation constant KD (koff/kon)
Procedure: as §1

| Compound | Surface tension at minimum bubble radius at time 0.5 min ([1]; 0.5 min pulsation) [mN/m] | Surface tension at minimum bubble radius at time 1 min ([1]; 1 min pulsation) [mN/m] | Surface tension at minimum bubble radius at time 2 min ([1]; 2 min pulsation) [mN/m] | Surface tension at minimum bubble radius at time 5 min ([1]; 5 min pulsation) [mN/m] | Surface tension at minimum bubble radius at time 10 min ([1]; 10 min pulsation) [mN/m] | Surface tension at minimum bubble radius at time 15 min ([1]; 15 min pulsation) [mN/m] | Surface tension at minimum bubble radius at time […] ([1]; […] pulsation) [mN/m] | Kd [2] [nM] | Kd (DEPN-8) [nM] |
| --- | --- | --- | --- | --- | --- | --- | --- | --- | --- |
| CCCCCCCCCCCCCCCCOCC(COP(=O)(O)CCC[N+](C)(C)C)OCCCCCCCCCCCCCCCC (racemic) [DEPN-8, [(±)-trimethyl(3-phosphonopropyl)ammonium, mono(2,3-bis(hexadecyloxy)propyl ester]] | 27 ± 2 | 21 ± 2 | 14 ± 2 | 6 ± 1 | 2 ± 1 | <1 | 32 ± 2 | – | – |
| FPIPLPYCWLCRALIKRIQAMIPKGGRMLPQLVCRLVLRCS [Super Mini-B] | – | – | – | – | – | – | – | 769 | 63 |

Reference: patent publication US8563683B2, “Synthetic lung surfactant and use thereof” (University of Rochester, priority 2006, dated 2013)
